Results reported in patent US20160340324A1, “METHODS AND COMPOSITIONS FOR TREATING CANCER” (Sanford-Burnham Medical Research Institute, priority 2013, published 2016).

Legend:
RXRα-LBD = target: T1, RXRα-LBD (Homo sapiens, UniProt P19793); test: Mammalian one hybrid: Gal4-RXRα-LBD chimera (pBind-RXRα-LBD) and pG5luc reporter in HCT-116 cells; type: cell-based; conditions: 9-cis-RA 10^-7 M, BI-1003 1 μM, K-8008 and K-8012 50 μM
T1 construct: expressed in transfected cells; host or cells: HCT-116
T1 sequence (P19793 227-458 limits assumed): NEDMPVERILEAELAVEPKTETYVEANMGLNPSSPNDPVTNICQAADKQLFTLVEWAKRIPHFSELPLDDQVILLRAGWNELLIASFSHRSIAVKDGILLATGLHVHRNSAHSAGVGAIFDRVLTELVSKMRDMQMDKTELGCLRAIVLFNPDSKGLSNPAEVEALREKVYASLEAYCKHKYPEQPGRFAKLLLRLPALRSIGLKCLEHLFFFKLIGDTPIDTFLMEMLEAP
Method: FIGS. 2A and 2B are graphs of relative CAT activity. (TREpal)2-tk-CAT and RXRα were transiently transfected into CV-1 cells. […] CAT activity was determined. […] Error bars represent SEM. FIG. 2C is a graph of relative LUC activity. pBind-RXRα-LBD and pG5luc were transiently transfected into HCT-116 cells. […] Luciferase activity was determined. […] HCT-116 cells seeded in 24-well plates were transiently transfected with 50 ng pG5luc, 25 ng pBind-RXRα-LBD. […] Cells were washed, lysed and assayed by using the Dual-Luciferase Reporter Assay System (Promega). Transfection efficiency was normalized to Renilla luciferase activity.

RXRα = target: T2, RXRα (Homo sapiens, UniProt P19793); test: CAT reporter assay with (TREpal)2-tk-CAT and RXRα transfected into CV-1 cells; type: cell-based; conditions: 9-cis-RA 10^-7 M, BI-1003 1 μM
T2 construct: expressed in transfected cells; host or cells: CV-1 African green monkey kidney cells
T2 sequence (P19793 1-462): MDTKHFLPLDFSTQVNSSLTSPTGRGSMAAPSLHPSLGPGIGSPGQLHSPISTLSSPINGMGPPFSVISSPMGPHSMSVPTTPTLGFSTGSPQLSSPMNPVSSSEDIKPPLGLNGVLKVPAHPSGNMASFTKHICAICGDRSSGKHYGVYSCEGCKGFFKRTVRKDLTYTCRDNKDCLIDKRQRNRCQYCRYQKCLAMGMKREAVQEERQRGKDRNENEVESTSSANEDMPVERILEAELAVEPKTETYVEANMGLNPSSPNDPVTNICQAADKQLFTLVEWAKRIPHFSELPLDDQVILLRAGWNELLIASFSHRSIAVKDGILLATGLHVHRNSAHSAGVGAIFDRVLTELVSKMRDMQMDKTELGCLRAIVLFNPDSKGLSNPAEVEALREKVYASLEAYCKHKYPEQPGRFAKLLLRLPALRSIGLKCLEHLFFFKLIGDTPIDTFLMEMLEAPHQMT
Method: FIGS. 2A and 2B are graphs of relative CAT activity. (TREpal)2-tk-CAT and RXRα were transiently transfected into CV-1 cells. […] CAT activity was determined. […] Error bars represent SEM. FIG. 2C is a graph of relative LUC activity. pBind-RXRα-LBD and pG5luc were transiently transfected into HCT-116 cells. […] Luciferase activity was determined.

A549 cells = test: PARP cleavage (apoptosis) with or without TNFα, immunoblotting; type: cell-based, human; conditions: 4 h; for PARP cleavage, combination with TNFα: 40 μM compound plus TNFα 10 ng/mL
HepG2 tumor xenografts = HepG2 tumor xenografts in nude mice; type: in vivo; conditions: for apparent toxic effects such as loss of body weight: 20 mg/kg daily for 12 days, body weight every 3 days; for reduction of tumor weight: 20 mg/kg intraperitoneally once a day, 12-day treatment
Method: FIGS. 4A-4F depict inhibition of HepG2 tumor growth in animals. FIG. 4A is a photograph of tumors. FIG. 4B is a graph of tumor volume. FIG. 4C is a graph of tumor weight. […] Tumors were removed and measured. Tumor sizes and weights in control, K-80003 and K-8008-treated mice were compared. FIG. 4D is a Western blot. Lysates prepared from three tumors treated with vehicle or K-8008 were analyzed by Western blotting assay for p-AKT expression. FIG. 4E is a series of photomicrographs. H&E staining and TUNEL assay. Tumor sections were stained for H&E or TUNEL by immunohistochemistry. […]. FIG. 4F is a graph of body weight. […]. Body weight was measured every three days. Each point represents the mean±standard deviation of six mice. The differences between the compound treated group and control group are not significant (P>5%).
[…]. Nude mice (BALB/c, SPF grade. 16-18 g, 4-5-week old) were housed at 28° C. in a laminar flow under sterilized conditions. Mice were injected subcutaneously with 100 μL HepG2 cells ([…]). […]. Body weight and tumor size were measured every 3 days. Mice were sacrificed after 12-day drug treatment and the tumors removed for various assessments.
Paraffin wax embedded tumors were cut into 5 |iM-thick sections. These sections were deparaffinized and stained with hematoxylin and eosin (H&E) according to the standard protocol. Tumor sections of HepG2 xenografts were also stained with TUNEL for assessing spontaneous apoptosis according to the manufacturer's instructions (In situ Cell Death Detection Kit; Roche). The images were taken under a fluorescent microscope (Carl Zeiss).

[1] = test system: TNFα-induced AKT activation in A549 lung cancer cells; test: Inhibition of TNFα-induced AKT activation, immunoblotting; type: cell-based, human; conditions: pretreated 1 h, TNFα 10 ng/mL 30 min
Method: (§1) Cell viability was measured by the MTT colorimetric assay. FIG. 3B depicts inhibition of TNFα-induced AKT activation. […] Phosphorylated AKT and total AKT were analyzed by immunoblotting.
ZR-75-1 and MB231 breast cancer cells (FIG. 8). A unique property of Sulindac and other compounds are their ability to inhibit TNFα-induced AKT activation (Zhou et al, 2010). […] Similar results were obtained in other cancer cell lines (FIG. 9).
Cells were lysed and equal amounts of the lysates were electrophoresed on 10% SDS-PAGE gels and transferred onto PVDF membranes (Millipore). The membranes were blocked with 5% skimmed milk in TBST [50 mM Tris-HCl (pH7.4), 150 mM NaCl and 0.1% Tween20] for 1 h, then incubated with primary antibodies and secondary antibodies and detected using ECL system (Thermo). The dilutions of the primary antibodies were anti-RXRα (AN 197, Santa Cruz) in 1:1000, anti-PARP(H-250. Santa Cruz) in 1:3000, anti-p85α (Millipore) in 1:1000, anti-p-AKT (D9E, Cell Signaling Technology) in 1:1000, anti-AKT 1/2/3 (H-136, Santa Cruz) in 1:1000, anti-β-actin (Sigma) in 1:5000, anti-c-myc (9E10, Santa Cruz), anti-Flag (FI 804, Sigma).

[2] = test system: A549 lung cancer, PC3 prostate cancer, ZR-75-1 and MB231 breast cancer cells; test: MTT cell viability / growth inhibition assay; type: cell-based, human; conditions: 48 h
Method: as §1
FIGS. 8A-C are a series of graphs depicting that sulindac and other compounds induce apoptosis of cancer cells. FIG. 8A is a PC3 prostate cancer cell line. FIG. 8B is a ZR-75-1 breast cancer cell line, and FIG. 8C is a MDA-MB-231 breast cancer cell line. Each were treated with the indicated concentration of Sulindac or other compounds for 48 h. Cell viability was determined by the MTT assay.
Confluent cells cultured in 96-well dishes were treated with various concentrations of compounds for 48 h. The cells were then incubated with 2 mg/mL (3-(4,5-Dimethylthiazol-2-yl)-2,5-diphenyltetrazolium bromide (MTT) for 4 h at 37° C. MTT solution was then aspirated and formazan in cells was instantly dissolved by addition of 150 μL DMSO each well. Absorbance was measured at 570 nm.

human RXRα-LBD = target: T3, human RXRα-LBD (Homo sapiens, UniProt P19793); test: Ligand-binding competition assay with [3H]9-cis-RA; conditions: [3H]-9-cis-RA 7.5 nM
T3 sequence (P19793 223-462): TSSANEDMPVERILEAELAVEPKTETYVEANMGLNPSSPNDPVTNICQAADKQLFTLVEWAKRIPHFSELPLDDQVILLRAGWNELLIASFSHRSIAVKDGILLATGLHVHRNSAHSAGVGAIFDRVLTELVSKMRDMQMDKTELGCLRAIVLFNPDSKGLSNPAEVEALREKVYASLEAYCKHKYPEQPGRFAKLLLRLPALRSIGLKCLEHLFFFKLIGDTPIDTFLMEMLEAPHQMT

cancer cells = conditions: literature (Weggen 2001; Yamamoto 1999; Zhang 2000); cited from earlier work

SMILES	PARP cleavage, combination with TNFα (A549 cells)	apparent toxic effects such as loss of body weight (HepG2 tumor xenografts)	reduction of tumor weight (HepG2 tumor xenografts)	TNFα-induced AKT activation [1]	inhibition of growth of cancer cells compared to Sulindac [2]	also measured
CCCOc1cc2c(cc1C(=C1CC1)c1ccc(C(=O)O)cc1)C(C)(C)CCC2(C)C [BI-1003]						inhibition of 9-cis-RA-induced Ga14 reporter activation (RXRα-LBD): inhibited; inhibition of 9-cis-RA-induced TREpal reporter activity (RXRα): inhibited
CC1=C(CCc2nnn[nH]2)c2ccccc2/C1=C\c1ccc(C(C)C)cc1 [Compound K-8008, (Z)-5-(2-(1-(4-iso-Propylbenzylidene)-2-methyl-1H-inden-3-yl)ethyl)-1H-tetrazole]	could convert TNFα signaling from survival to death	did not show any apparent toxic effects	61.23%	suppressed in a dose dependent manner	much more effective	apoptosis in tumor sections, TUNEL staining (HepG2 tumor xenografts; 20 mg/kg): induction of apoptosis; growth of HepG2 tumor (HepG2 tumor xenografts; 20 mg/kg intraperitoneally daily): inhibited the growth of HepG2 tumor in a time dependent manner; AKT activation (p-AKT) in tumors, Western blotting (HepG2 tumor xenografts; three tumors, 20 mg/kg): reduction of AKT activation
CC1=C(CC(=O)O)c2cc(F)ccc2/C1=C\c1ccc(C(C)C)cc1 [Compound K-80003, reference compound]		did not show any apparent toxic effects	54.84%			competition with [3H]9-cis-RA for binding to the LBP of RXRα (human RXRα-LBD): competed well
CC1=C(CCc2nnn[nH]2)c2cc(F)ccc2/C1=C\c1ccc(C(C)C)cc1 [Compound K-8012, (Z)-5-(2-(5-Fluoro-1-(4-isopropylbenzylidene)-2-methyl-1H-inden-3-yl)ethyl)-1H-tetrazole]	could convert TNFα signaling from survival to death			suppressed in a dose dependent manner	much more effective	
CC1=C(CC(=O)O)c2cc(F)ccc2/C1=C\c1ccc([S+](C)[O-])cc1 (stereo not shown) [Sulindac, reference compound]	significant induction of PARP cleavage					PARP cleavage, compound alone (A549 cells; 40 μM, 1% FBS): slightly induced PARP cleavage; concentration normally used to achieve anti-cancer effects (cancer cells): About 100 μM
